Test results from US10376520B2, “Methods for the treatment of cardiovascular disorders” (Galapagos NV, priority 2015, dated 2019).

System: RA patients
Assay: [HDL] determination, Study 2 (RA patients, monotherapy)
Type: in vivo, human
Source text: Randomized, double-blind, placebo-controlled, multicenter, phase IIb dose finding study of Compound 1 (dosed as a [Compound 1:HCl:3H2O]) administered for 24 weeks as monotherapy to subjects with moderately to severely active rheumatoid arthritis who have an inadequate response to methotrexate alone
Double-blind, placebo-controlled, monotherapy study in subjects with moderately to severely active RA who have an inadequate response to methotrexate (MTX) (oral or parenteral).
280 subjects randomized to one of 3 doses of Compound 1 (dosed as a [Compound 1:HCl:3H2O]) or to placebo, given once daily (q.d.).
Twelve weeks of treatment with Compound 1 (dosed as a [Compound 1:HCl:3H2O]) at 50 mg, 100 mg, or 200 mg q.d.; or placebo. At Week 12, all subjects on placebo and the subjects on the 50 mg dose who have not achieved 20% improvement in swollen joint count (SJC66) and tender joint count (TJC68) will be assigned to 100 mg q.d. in a blinded fashion and will continue treatment until Week 24. Subjects in the other groups will maintain their randomized treatment until Week 24.
This assay relies on a homogeneous enzymatic colorimetric test. In the presence of magnesium ions, dextran sulfate selectively forms water-soluble complexes with LDL, VLDL and chylomicrons which are resistant to PEG-modified enzymes.
The cholesterol concentration of [HDL]-cholesterol is determined enzymatically by cholesterol esterase and cholesterol oxidase coupled with PEG to the amino groups (approx. 40%).
In the presence of peroxidase, the hydrogen peroxide generated reacts with 4-amino-antipyrine and Sodium N-(2-hydroxy-3-sulfopropyl)-3,5-dimethoxyaniline (HSDA) to form a purple-blue dye. The color intensity of this dye is directly proportional to the cholesterol concentration and is measured photometrically.
Human serum and plasma samples [HDL] determination was done on a Roche/Hitachi Cobas c 701/702 system which automatically calculate the analyte concentration of each sample. Samples containing precipitates are centrifuged before performing the assay.

[1] = placebo switching to 100 mg q.d. at week 12 (N = 72), week 16
[2] = placebo switching to 100 mg q.d. at week 12 (N = 72), week 20
[3] = placebo switching to 100 mg q.d. at week 12 (N = 72), week 24
[4] = placebo switching to 100 mg q.d. at week 12, week 16
[5] = placebo switching to 100 mg q.d. at week 12, week 20
[6] = placebo switching to 100 mg q.d. at week 12, week 24

## O=C(Nc1nc2cccc(-c3ccc(CN4CCS(=O)(=O)CC4)cc3)n2n1)C1CC1 [Compound 1, cyclopropanecarboxylic acid {5-[4-(1,1-dioxo-thiomorpholin-4-ylmethyl)-phenyl]-[1,2,4]triazolo[1,5-a]pyridin-2yl}-amide]
100 mg q.d. (N = 70), week 8
  [HDL] Mean CFB - 24 weeks results: 0.17 mmol/L
  [HDL] Median CFB: 0.140 mmol/L
  [HDL] Median CFB - 24 weeks results: 0.14 mmol/L
100 mg q.d. (N = 70), week 12
  [HDL] Mean CFB: 0.190 mmol/L
  [HDL] Mean CFB - 24 weeks results: 0.19 mmol/L
  [HDL] Median CFB: 0.150 mmol/L
  [HDL] Median CFB - 24 weeks results: 0.15 mmol/L
100 mg q.d. (N = 70), week 16
  [HDL] Mean CFB - 24 weeks results: 0.23 mmol/L
  [HDL] Median CFB - 24 weeks results: 0.20 mmol/L
100 mg q.d. (N = 70), week 20
  [HDL] Mean CFB - 24 weeks results: 0.19 mmol/L
  [HDL] Median CFB - 24 weeks results: 0.17 mmol/L
100 mg q.d. (N = 70), week 24
  [HDL] Mean CFB - 24 weeks results: 0.18 mmol/L
  [HDL] Median CFB - 24 weeks results: 0.18 mmol/L
100 mg q.d., week 1
  [HDL] Mean percentage CFB - 12 weeks results: 7.49%
  [HDL] Mean percentage CFB - 24 weeks results: 7.49%
  [HDL] Median percentage CFB - 12 weeks results: 3.27%
100 mg q.d., week 2
  [HDL] Mean percentage CFB - 12 weeks results: 11.30%
  [HDL] Mean percentage CFB - 24 weeks results: 11.30%
  [HDL] Median percentage CFB - 12 weeks results: 8.75%
100 mg q.d., week 4
  [HDL] Mean percentage CFB - 12 weeks results: 15.65%
  [HDL] Mean percentage CFB - 24 weeks results: 15.65%
  [HDL] Median percentage CFB - 12 weeks results: 12.66%
100 mg q.d., week 8
  [HDL] Mean percentage CFB - 12 weeks results: 13.77%
  [HDL] Mean percentage CFB - 24 weeks results: 13.77%
  [HDL] Median percentage CFB - 12 weeks results: 9.33%
100 mg q.d., week 12
  [HDL] Mean percentage CFB - 12 weeks results: 15.23%
  [HDL] Mean percentage CFB - 24 weeks results: 15.23%
  [HDL] Median percentage CFB - 12 weeks results: 11.86%
100 mg q.d., week 16
  [HDL] Median percentage CFB - 24 weeks results: 14.81%
100 mg q.d., week 20
  [HDL] Mean percentage CFB - 24 weeks results: 14.51%
  [HDL] Median percentage CFB - 24 weeks results: 13.29%
100 mg q.d., week 24
  [HDL] Mean percentage CFB - 24 weeks results: 15.18%
  [HDL] Median percentage CFB - 24 weeks results: 12.54%
200 mg q.d. (N = 69), week 1
  [HDL] Mean CFB: 0.026 mmol/L
  [HDL] Mean CFB - 24 weeks results: 0.03 mmol/L
  [HDL] Median CFB: 0.030 mmol/L
  [HDL] Median CFB - 24 weeks results: 0.03 mmol/L
200 mg q.d. (N = 69), week 2
  [HDL] Mean CFB: 0.163 mmol/L
  [HDL] Mean CFB - 24 weeks results: 0.16 mmol/L
  [HDL] Median CFB: 0.150 mmol/L
  [HDL] Median CFB - 24 weeks results: 0.15 mmol/L
200 mg q.d. (N = 69), week 4
  [HDL] Mean CFB: 0.220 mmol/L
  [HDL] Mean CFB - 24 weeks results: 0.22 mmol/L
  [HDL] Median CFB: 0.210 mmol/L
  [HDL] Median CFB - 24 weeks results: 0.21 mmol/L
200 mg q.d. (N = 69), week 8
  [HDL] Mean CFB: 0.219 mmol/L
  [HDL] Mean CFB - 24 weeks results: 0.22 mmol/L
  [HDL] Median CFB: 0.200 mmol/L
  [HDL] Median CFB - 24 weeks results: 0.20 mmol/L
200 mg q.d. (N = 69), week 12
  [HDL] Mean CFB: 0.194 mmol/L
  [HDL] Mean CFB - 24 weeks results: 0.19 mmol/L
  [HDL] Median CFB: 0.150 mmol/L
  [HDL] Median CFB - 24 weeks results: 0.15 mmol/L
200 mg q.d. (N = 69), week 16
  [HDL] Mean CFB - 24 weeks results: 0.19 mmol/L
  [HDL] Median CFB - 24 weeks results: 0.16 mmol/L
200 mg q.d. (N = 69), week 20
  [HDL] Mean CFB - 24 weeks results: 0.21 mmol/L
  [HDL] Median CFB - 24 weeks results: 0.16 mmol/L
200 mg q.d. (N = 69), week 24
  [HDL] Mean CFB - 24 weeks results: 0.19 mmol/L
  [HDL] Median CFB - 24 weeks results: 0.16 mmol/L
200 mg q.d., week 1
  [HDL] Mean percentage CFB - 12 weeks results: 2.04%
  [HDL] Mean percentage CFB - 24 weeks results: 2.04%
  [HDL] Median percentage CFB - 12 weeks results: 2.50%
200 mg q.d., week 2
  [HDL] Mean percentage CFB - 12 weeks results: 11.20%
  [HDL] Mean percentage CFB - 24 weeks results: 11.20%
  [HDL] Median percentage CFB - 12 weeks results: 9.92%
200 mg q.d., week 4
  [HDL] Mean percentage CFB - 12 weeks results: 15.68%
  [HDL] Mean percentage CFB - 24 weeks results: 15.68%
  [HDL] Median percentage CFB - 12 weeks results: 14.18%
200 mg q.d., week 8
  [HDL] Mean percentage CFB - 12 weeks results: 15.24%
  [HDL] Mean percentage CFB - 24 weeks results: 15.24%
  [HDL] Median percentage CFB - 12 weeks results: 16.35%
200 mg q.d., week 12
  [HDL] Mean percentage CFB - 12 weeks results: 14.60%
  [HDL] Mean percentage CFB - 24 weeks results: 14.60%
  [HDL] Median percentage CFB - 12 weeks results: 12.00%
200 mg q.d., week 16
  [HDL] Mean percentage CFB - 24 weeks results: 13.07%
200 mg q.d., week 20
  [HDL] Mean percentage CFB - 24 weeks results: 15.18%
  [HDL] Median percentage CFB - 24 weeks results: 11.54%
200 mg q.d., week 24
  [HDL] Mean percentage CFB - 24 weeks results: 13.79%
  [HDL] Median percentage CFB - 24 weeks results: 11.96%
[1]
  [HDL] Mean CFB - 24 weeks results: 0.19 mmol/L
  [HDL] Median CFB - 24 weeks results: 0.16 mmol/L
[2]
  [HDL] Mean CFB - 24 weeks results: 0.19 mmol/L
  [HDL] Median CFB - 24 weeks results: 0.18 mmol/L
[3]
  [HDL] Mean CFB - 24 weeks results: 0.16 mmol/L
  [HDL] Median CFB - 24 weeks results: 0.15 mmol/L
[4]
  [HDL] Mean percentage CFB - 24 weeks results: 16.36%
  [HDL] Median percentage CFB - 24 weeks results: 10.82%
[5]
  [HDL] Mean percentage CFB - 24 weeks results: 16.02%
  [HDL] Median percentage CFB - 24 weeks results: 13.11%
[6]
  [HDL] Mean percentage CFB - 24 weeks results: 13.47%
  [HDL] Median percentage CFB - 24 weeks results: 11.36%
